Assay results taken from PubChem BioAssay AID1963441 (Molecular Pharmacology Branch, DTP, NCI, 2024).

Tested on: NCI-H1876 complex spheroid growth, % test/control
Assay: Anticancer human tumor NCI-H1876 cell line growth inhibition [Asc];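 also: compound exposure lasted 7 days starting three days after seeding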;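 as to viability, T/C: 100% = DMSO vehicle control wells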
Conditions: for IC50: curve of first compound; for viability, T/C: stronger effect = lower value
Procedure: Multicellular complex tumor spheroid response to apoptosis pathway targeting inhibitors Alrizomadlin, Pelcitoclax, and Dasminapant in combination with a variety of drugs and investigational agents in selected tumor cell lines
The MDM2 inhibitor alrizomadlin, the Bcl-2/Bcl-xL inhibitor pelcitoclax, and the IAPs inhibitor dasminapant were evaluated both individually and in combination with standard of care and investigational anticancer small molecules within a complex spheroid model of solid tumors. . Complex spheroids include a stromal component modeled by human endothelial cells (HUVEC) and fibroblasts modeled by human mesenchymal stem cells (MSCs). The concentration ranges selected for each drug and investigational agent were based upon clinically achievable concentrations if the clinical Cmax of the agent was known.
Compounds. The drugs and investigational agents: alrizomadlin (APG-115; NSC831270), pelcitoclax (APG-1252; NSC835773), dasminapant (APG-1387;NSC834197), TAK-243 (NSC785004), copanlisib (NSC809693), olaparib (NSC753686), talazoparib (NSC767125), cobimetinib (NSC 768068), eltanexor (KPT-8602, NSC 794443), abemaciclib (NSC 768073), sotorasib (NSC818433), adagrasib (NSC 831453), MRTX-1133 (NSC 836407), Iadademestat (ORY1001, NSC 806812), and RMC-4630 (NSC839698), were obtained from the NCI Developmental Therapeutics Program Chemical Repository. The FDA-approved anticancer drug set is available from the Developmental Therapeutics Program at https://dtp.cancer.gov/organization/dscb/obtaining/available plates.htm. […] The stock solutions were prepared in dimethyl sulfoxide (DMSO, Sigma-Aldrich, St. Louis, MO, cat. D2650) at 800-fold the tested concentration and stored at -70 degrees C prior to their use. All drugs and investigational agents were tested over a range starting from a high concentration at or near the clinical Cmax and decreasing in half-log increments. If the clinical Cmax for an agent had not been determined, the highest concentration tested was 10 microM.
The patient-derived cancer (PDC) cell lines include five colon adenocarcinomas: 186277-243-T-J2-PDC, 616215-338-R-J1-PDC, 439559-082-T-J2-PDC, 463943-066-T-J2-PDC, and 519858-162-T-J1-PDC; three pancreatic carcinomas: 323965-272-R-J2-PDC, 521955-158-R6-J3-PDC, and 521955-158-R2-J5-PDC; two uterine sarcomas: 327498-152-R-J2-PDC and 993429-296-R-J1-PDC; two rhabdomyosarcomas: 755483-174-R-J1-PDC and 772245-204-R-J1-PDC; two soft tissue sarcomas: 126254-015-R-J1-PDC and 494315-158-R-J1-PDC; two malignant fibrous histiocytomas: 317291-083-R-J1-PDC and 596521-263-R-J1-PDC; two breast carcinomas: 171881-019-R-J1-PDC and 885512-296-R-J2-PDC; and one ovarian carcinoma: 6556581-035-R-J-PDC were obtained from the NCI PDMR, (https://pdmr.cancer.gov). The established cell lines HSSY-2 synovial sarcoma (RRID:CVCL 8719), SYO-1 synovial sarcoma (RRID:CVCL_7146), MPNST malignant peripheral neural sheath tumor were obtained from the Sloan Kettering Institute. The following established cell lines were purchased from the American Type Culture Collection (ATCC, Manassas, VA), Sor the received from the NCI repository:, PANC-1 pancreatic carcinoma (CRL-1469, RRID:CVCL_0480), OVCAR-5 ovarian carcinoma (RRID:CVCL_1628), OVCAR-8 ovarian carcinoma (RRID:CVCL_1629), , MCF-7 breast carcinoma (CRL-12584, RRID:CVCL_0031), MDA-MB-231 breast carcinoma (CRL-12532, RRID:CVCL_0062), NCI-H1876 small cell lung carcinoma (CRL-5902, RRID:CVCL_1503), NCI-H510A small cell lung carcinoma (HTB-184, RRID:CVCL_1565), NCI-H1417 (CRL-5869, RRID:CVCL_1469), and NCI-H196 small cell lung carcinoma (CRL-5823, RRID:CVCL_1509). Dr. Peter Houghton (Greehey Children's Cancer Research Institute, University of Texas Health Science Center, San Antonio, TX) provided Rh-18 rhabdomyosarcoma (RRID:CVCL_1659). Pooled donor human umbilical vein endothelial cells (HUVEC, Lonza, cat. CC-2519) and human mesenchymal stem cells (hMSC, Lonza, cat. PT-2501) were purchased from Lonza (Walkersville, MD).
Cell Culture. […]

[1] = second compound 0.00949 µM, first compound 0.00316 µM
[2] = second compound 0.00949 µM, first compound 0.01 µM
[3] = second compound 0.00949 µM, first compound 0.0316 µM
[4] = second compound 0.00949 µM, first compound 0.1 µM
[5] = second compound 0.00949 µM, first compound 0.316 µM
[6] = second compound 0.00949 µM, first compound 1 µM
[7] = second compound 0.03 µM, first compound 0.00316 µM
[8] = second compound 0.03 µM, first compound 0.01 µM
[9] = second compound 0.03 µM, first compound 0.0316 µM
[10] = second compound 0.03 µM, first compound 0.1 µM
[11] = second compound 0.03 µM, first compound 0.316 µM
[12] = second compound 0.03 µM, first compound 1 µM
[13] = second compound 0.0949 µM, first compound 0.00316 µM
[14] = second compound 0.0949 µM, first compound 0.01 µM
[15] = second compound 0.0949 µM, first compound 0.0316 µM
[16] = second compound 0.0949 µM, first compound 0.1 µM
[17] = second compound 0.0949 µM, first compound 0.316 µM
[18] = second compound 0.0949 µM, first compound 1 µM
[19] = second compound 0.3 µM, first compound 0.00316 µM
[20] = second compound 0.3 µM, first compound 0.01 µM
[21] = second compound 0.3 µM, first compound 0.0316 µM
[22] = second compound 0.3 µM, first compound 0.1 µM
[23] = second compound 0.3 µM, first compound 0.316 µM
[24] = second compound 0.3 µM, first compound 1 µM
[25] = second compound 0.949 µM, first compound 0.00316 µM
[26] = second compound 0.949 µM, first compound 0.01 µM
[27] = second compound 0.949 µM, first compound 0.0316 µM
[28] = second compound 0.949 µM, first compound 0.1 µM
[29] = second compound 0.949 µM, first compound 0.316 µM
[30] = second compound 0.949 µM, first compound 1 µM
[31] = second compound 3 µM, first compound 0.00316 µM
[32] = second compound 3 µM, first compound 0.01 µM
[33] = second compound 3 µM, first compound 0.0316 µM
[34] = second compound 3 µM, first compound 0.1 µM
[35] = second compound 3 µM, first compound 0.316 µM
[36] = second compound 3 µM, first compound 1 µM

`CCN1CCN(Cc2ccc(Nc3ncc(F)c(-c4cc(F)c5nc(C)n(C(C)C)c5c4)n3)nc2)CC1` + CCN1C(C(=O)NC23CCC(C(=O)O)(CC2)CC3)C(c2cccc(Cl)c2F)C2(C(=O)Nc3cc(Cl)ccc32)C12CCCCC2 was tested, and the IC50 (second compound 0.00949 µM) was > 1000 nM, the IC50 (second compound 0.03 µM) was > 1000 nM and the IC50 (second compound 0.0949 µM) was > 1000 nM. For the same molecule, the IC50 (second compound 0.3 µM) was > 1000 nM, the IC50 (second compound 0.949 µM) was > 1000 nM and the IC50 (second compound 3 µM) was > 1000 nM. For the same molecule, the viability, T/C [1] was 103%, the viability, T/C [2] was 100% and the viability, T/C [3] was 106%. The viability, T/C [4] was 115%, the viability, T/C [5] was 115% and the viability, T/C [6] was 129%. The viability, T/C [7] was 102%, the viability, T/C [8] was 102% and the viability, T/C [9] was 96.1%. For the same molecule, the viability, T/C [10] was 113%, the viability, T/C [11] was 123% and the viability, T/C [12] was 133%. It also gave a viability, T/C [13] of 105%, a viability, T/C [14] of 95.9% and a viability, T/C [15] of 117%. The viability, T/C [16] was 109%, the viability, T/C [17] was 116% and the viability, T/C [18] was 127%. For the same molecule, the viability, T/C [19] was 103%, the viability, T/C [20] was 105% and the viability, T/C [21] was 102%. For the same molecule, the viability, T/C [22] was 113%, the viability, T/C [23] was 123% and the viability, T/C [24] was 129%. For the same molecule, the viability, T/C [25] was 110%, the viability, T/C [26] was 114% and the viability, T/C [27] was 106%. The viability, T/C [28] was 114%, the viability, T/C [29] was 131% and the viability, T/C [30] was 122%. For the same molecule, the viability, T/C [31] was 113%, the viability, T/C [32] was 99.2% and the viability, T/C [33] was 109%. The viability, T/C [34] was 108%, the viability, T/C [35] was 116% and the viability, T/C [36] was 111%.
For `O=C(c1ccc(F)c(F)c1Nc1ccc(I)cc1F)N1CC(O)([C@@H]2CCCCN2)C1` + CCN1C(C(=O)NC23CCC(C(=O)O)(CC2)CC3)C(c2cccc(Cl)c2F)C2(C(=O)Nc3cc(Cl)ccc32)C12CCCCC2, the IC50 (second compound 0.00949 µM) was > 1000 nM, the IC50 (second compound 0.03 µM) was > 1000 nM and the IC50 (second compound 0.0949 µM) was > 1000 nM. For the same molecule, the IC50 (second compound 0.3 µM) was > 1000 nM, the IC50 (second compound 0.949 µM) was > 1000 nM and the IC50 (second compound 3 µM) was > 1000 nM. It also gave a viability, T/C [1] of 102%, a viability, T/C [2] of 90.7% and a viability, T/C [3] of 104%. The viability, T/C [4] was 95.7%, the viability, T/C [5] was 93.4% and the viability, T/C [6] was 87.7%. It also gave a viability, T/C [7] of 100%, a viability, T/C [8] of 98.5% and a viability, T/C [9] of 95.5%. For the same molecule, the viability, T/C [10] was 95.1%, the viability, T/C [11] was 89.5% and the viability, T/C [12] was 82.3%. It also gave a viability, T/C [13] of 104%, a viability, T/C [14] of 97.5% and a viability, T/C [15] of 88%. It also gave a viability, T/C [16] of 102%, a viability, T/C [17] of 85.8% and a viability, T/C [18] of 79.2%. It also gave a viability, T/C [19] of 99.9%, a viability, T/C [20] of 110% and a viability, T/C [21] of 109%. It also gave a viability, T/C [22] of 101%, a viability, T/C [23] of 103% and a viability, T/C [24] of 83.7%. For the same molecule, the viability, T/C [25] was 110%, the viability, T/C [26] was 114% and the viability, T/C [27] was 112%. For the same molecule, the viability, T/C [28] was 109%, the viability, T/C [29] was 108% and the viability, T/C [30] was 77.4%. The viability, T/C [31] was 103%, the viability, T/C [32] was 98.3% and the viability, T/C [33] was 101%. The viability, T/C [34] was 99.1%, the viability, T/C [35] was 91.3% and the viability, T/C [36] was 77.4%.
